Results as given in US10913736B2 (UNIVERSITY OF WASHINGTON, priority 2014, dated 2021).
Several values for one entry are separate records, joined by “and”; a condition that tells them apart may be missing. Identical values can stand only once. Like-named read-outs stand apart in the source and are kept apart here.

Legend:
L. amaz = L. amaz growth inhibition EC50; type: cell-based; settings: read-out: F) L. amaz EC50
MetRS (T. brucei) = MetRS (T. brucei) (Trypanosoma brucei brucei, UniProt Q38C91); assay: MetRS (T. brucei) ATP depletion assay using Kinase-Glo; type: biochemical
MetRS (T. brucei), sequence (Q38C91 entry or part of it): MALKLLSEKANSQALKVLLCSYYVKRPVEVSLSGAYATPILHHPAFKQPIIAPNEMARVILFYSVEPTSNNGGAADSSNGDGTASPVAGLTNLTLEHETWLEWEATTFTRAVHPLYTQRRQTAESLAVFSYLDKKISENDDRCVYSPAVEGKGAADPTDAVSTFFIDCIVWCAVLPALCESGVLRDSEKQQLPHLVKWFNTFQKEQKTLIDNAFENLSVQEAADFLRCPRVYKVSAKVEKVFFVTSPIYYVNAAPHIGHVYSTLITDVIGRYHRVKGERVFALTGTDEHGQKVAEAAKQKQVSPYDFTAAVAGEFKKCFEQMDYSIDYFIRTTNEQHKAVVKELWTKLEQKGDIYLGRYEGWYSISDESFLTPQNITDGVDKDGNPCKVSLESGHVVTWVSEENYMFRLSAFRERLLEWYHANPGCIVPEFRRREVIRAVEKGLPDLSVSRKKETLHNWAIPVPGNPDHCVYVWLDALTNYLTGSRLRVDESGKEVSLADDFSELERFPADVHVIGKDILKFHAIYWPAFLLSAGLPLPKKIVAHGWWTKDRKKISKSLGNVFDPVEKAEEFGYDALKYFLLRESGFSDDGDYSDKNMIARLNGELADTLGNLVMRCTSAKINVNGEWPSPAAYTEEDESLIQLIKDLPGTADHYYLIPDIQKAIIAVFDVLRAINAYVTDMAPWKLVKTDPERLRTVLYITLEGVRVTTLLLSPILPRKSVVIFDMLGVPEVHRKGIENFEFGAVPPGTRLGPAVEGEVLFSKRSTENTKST

MetRS (S. aureus) = MetRS (S. aureus) (Staphylococcus aureus, UniProt Q5HII6); assay: biochemical; settings: ATP depletion, Kinase-Glo; read-out: H) MetRS (S. aureus) ATP depletion assay using Kinase-Glo with modified cpd dilution method, IC50
MetRS (S. aureus), sequence (Q5HII6 whole entry): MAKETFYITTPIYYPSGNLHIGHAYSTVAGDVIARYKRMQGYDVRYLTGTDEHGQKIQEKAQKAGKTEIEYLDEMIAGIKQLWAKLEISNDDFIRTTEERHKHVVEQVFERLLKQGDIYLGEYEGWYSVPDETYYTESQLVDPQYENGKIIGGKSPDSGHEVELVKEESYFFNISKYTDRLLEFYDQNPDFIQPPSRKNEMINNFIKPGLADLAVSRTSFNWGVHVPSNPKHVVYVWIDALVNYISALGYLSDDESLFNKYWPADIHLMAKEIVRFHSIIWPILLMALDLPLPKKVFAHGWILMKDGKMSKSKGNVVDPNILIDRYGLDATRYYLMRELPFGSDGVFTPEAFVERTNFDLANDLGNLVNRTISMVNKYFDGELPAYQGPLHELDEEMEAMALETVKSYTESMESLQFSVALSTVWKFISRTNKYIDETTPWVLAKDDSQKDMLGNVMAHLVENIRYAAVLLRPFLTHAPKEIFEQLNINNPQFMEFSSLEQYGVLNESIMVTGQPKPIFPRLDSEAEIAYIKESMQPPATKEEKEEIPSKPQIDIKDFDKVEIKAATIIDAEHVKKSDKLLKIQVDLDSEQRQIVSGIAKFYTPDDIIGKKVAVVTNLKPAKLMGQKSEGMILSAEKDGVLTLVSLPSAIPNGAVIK

T. cruzi = T. cruzi growth inhibition EC50; type: cell-based; settings: Trypanosoma cruzi; read-out: C) T. cruzi EC50
T. brucei = assay: Growth inhibition assay of T. brucei cell cultures (Alamar Blue, 48 h); type: cell-based
[1] = tested on: S. aureus MRSA (ATCC 43300); assay: S. aureus MRSA (ATCC 43300) MIC/EC50; type: cell-based; settings: Staphylococcus aureus; S. aureus MRSA ATCC 43300; read-out: J) S. aureus MRSA (ATCC 43300) MIC/EC50, MIC
S. aureus (ATCC 29213) = S. aureus (ATCC 29213) MIC/EC50; type: cell-based; settings: Staphylococcus aureus, ATCC29213; S. aureus ATCC 29213; read-out: I) S. aureus (ATCC 29213) MIC/EC50, MIC
[2] = Trypanosoma brucei; read-out: B) T. brucei EC50

Structure (SMILES) | EC50 (L. amaz) [nM] | IC50 (MetRS (T. brucei)) | IC50 (MetRS (S. aureus)) [nM] | EC50 (T. cruzi) [nM] | EC50 (T. brucei; [2]) [nM] | MIC [1] [µg/mL] | MIC (S. aureus (ATCC 29213)) [µg/mL] | EC50 (T. brucei; read-out: B) T. brucei EC50)
COc1ccc(Oc2cc(NCc3nc4ccc(F)nc4[nH]3)nc(Cl)n2)c(Cl)c1 [Compound 1796, 6-(2-chloro-4-methoxyphenoxy)-2-chloro-N-((5-fluoro-3H-imidazo[4,5-b]pyridin-2-yl)methyl)pyrimidin-4-amine] | > 1000 | 17 nM | 55 | 521 |  |  |  | 
O=C(NCc1nc2ccccc2[nH]1)OCCc1ccc(Cl)cc1Cl [Compound 1701, 2-(2,4-dichlorophenyl)ethyl N-(1H-1,3-benzodiazol-2-ylmethyl)carbamate] |  | 5 nM | 67 | 8750 | 1290 | > 10 | > 10 | 
FC(F)(CNCc1cc(Cl)cc(Cl)c1)CNc1nc2cccnc2[nH]1 [Compound 1708, [(3,5-dichlorophenyl)methyl][2,2-difluoro-3-({3H-imidazo[4,5-b]pyridin-2-yl}amino)propyl]amme] | > 1000 | 11 nM | 88 | > 5000 | 1560 |  |  | 893 nM
O=C(Cc1cc(Cl)cc(Cl)c1)N1CCCC(c2nc3nc(F)ccc3[nH]2)C1 (centres unmarked) [Compound 1761, 2-(3,5-dichlorophenyl)-1-(3-(5-fluoro-1H-imidazo[4,5-b]pyridin-2-yl)piperidin-1-yl)ethanone] |  | 54 nM | 1910 | > 5000 | 996 | > 10 | > 10 | 
COc1c(Cl)cc(Cl)cc1CN[C@H]1CCCN(c2nc3nc(Cl)ccc3[nH]2)C1 [Compound 1911, (S)-1-(5-chloro-1H-imidazo[4,5-b]pyridin-2-yl)-N-(3,5-dichloro-2-methoxybenzyl)piperidin-3-amine] | 5150 | 21 nM |  |  | 357 |  |  | 
N[C@@H](CC(=O)NCc1nc2ccccc2[nH]1)Cc1ccc(Cl)cc1Cl [Compound 1720, (R)—N-((1H-benzo[d]imidazol-2-yl)methyl)-3-amino-4-(2,4-dichlorophenyl)butanamide] |  | 70 nM | 181 | 3700 | 848 | > 10 | > 10 | 
Clc1cc(Cl)cc(CN[C@H]2CCCN(c3nc4nc(Cl)ccc4[nH]3)C2)c1 [Compound 1856, (S)-1-(5-chloro-1H-imidazo[4,5-b]pyridin-2-yl)-N-(3,5-dichlorobenzyl) piperidin-3-amine] | 4350 | 19 nM | 365 | 1470 | 38.7 |  |  | 
CN(CCN[C@@H]1CCNc2c(Cl)cc(Cl)cc21)c1nc2nc(F)ccc2[nH]1 [Compound 1919, (R)—N1-(6,8-dichloro-1,2,3,4-tetrahydroquinolin-4-yl)-N2-(5-fluoro-1H-imidazo[4,5-b]pyridin-2-yl)-N2-methylethane-1,2-diamine] | 1640 | 15 nM | 328 | 88.8 | 6.31 |  |  | 9.45 nM
CN(CCNCc1cc(Cl)cc(Cl)c1)c1nc2ccc(Cl)nc2[nH]1 [Compound 1893, N-(2-(3,5-dichlorobenzylamino)ethyl)-5-chloro-N-methyl-1H-imidazo[4,5-b]pyridin-2-amine] | 3780 | 8 nM | 296 | 340 | 14.8 |  |  | 28.2 nM
Clc1cc(Cl)cc(CNCC2CCCN2c2nc3nc(Cl)ccc3[nH]2)c1 (centres unmarked) [Compound 1916, 1-(1-(5-chloro-1H-imidazo[4,5-b]pyridin-2-yl)pyrrolidin-2-yl)-N-(3,5-dichlorobenzyl)methanamine] | 9550 | 58 nM |  |  | 480 |  |  | 
COc1ccc(Oc2ccnc(NCc3nc4ccccc4[nH]3)c2)c(Cl)c1 [Compound 1933, N-((1H-benzo[d]imidazol-2-yl)methyl)-4-(2-chloro-4-methoxyphenoxy)pyridin-2-amine] |  | 22 nM | 40 | 1710 | 102 |  |  | 
Clc1cc(Br)cc(CN[C@H]2CCCN(c3nc4nc(Cl)ccc4[nH]3)C2)c1 [Compound 1912, (S)—N-(3-bromo-5-chlorobenzyl)-1-(5-chloro-1H-imidazo[4,5-b]pyridin-2-yl)piperidin-3-amine] | 7730 | 8 nM |  | 2250 | 70.6 |  |  | 
O=C(Cc1cc(Cl)cc(Cl)c1)N1CCC[C@H](c2nc3cc(Cl)ccc3[nH]2)C1 [Compound 1758, (S)-1-(3-(5-chloro-1H-benzo[d]imidazol-2-yl)piperidin-1-yl)-2-(3,5-dichlorophenyl)ethanone] |  | 31 nM | 1040 |  | 4650 | > 10 | > 10 | 
CC(Cc1nc2ccc(Cl)cc2[nH]1)NCc1cc(Cl)cc(Cl)c1 (centres unmarked) [Compound 1794, [1-(5-chloro-1H-1,3-benzodiazol-2-yl)propan-2-yl][(3,5-dichlorophenyl)methyl]amine] |  | 31 nM and 17 nM and 72 nM and 70 nM | 22600 | 5230 | 1330 |  |  | 1870 nM and 1840 nM
Clc1cc(Cl)cc(NCC2CCCN(c3nc4nc(Cl)ccc4[nH]3)C2)c1 (centres unmarked) [Compound 1862, 3,5-dichloro-N-((1-(5-chloro-1H-imidazo[4,5-b]pyridin-2-yl)piperidin-3-yl)methyl)aniline] |  | 31 nM | 754 | 4920 | 343 |  |  | 
COc1ccc(Oc2nc(NCc3nc4ccc(F)nc4[nH]3)nc(NCc3nc4ccc(F)nc4[nH]3)n2)c(Cl)c1 [Compound 1883, 6-(2-chloro-4-methoxyphenoxy)-2-N,4-N-bis({5-fluoro-3H-imidazo[4,5-b]pyridin-2-yl}methyl)-1,3,5-triazine-2,4-diamine] |  | 39 nM | 333 | 17400 | 5620 |  |  | 3670 nM
CCOc1c(Br)cc(Br)cc1CN[C@H]1CCCN(c2nc3nc(Cl)ccc3[nH]2)C1 [Compound 1910, (S)-1-(5-chloro-1H-imidazo[4,5-b]pyridin-2-yl)-N-(3,5-dibromo-2-ethoxybenzyl)piperidin-3-amine] |  | 19 nM | 22 | 934 | 39.5 |  |  | 
COc1ccc(Oc2cc(NCc3nc4ccc(F)nc4[nH]3)nc(N3CCN(c4cnccn4)CC3)n2)c(Cl)c1 [Compound 1797, 6-(2-chloro-4-methoxyphenoxy)-N-((5-fluoro-3H-imidazo[4,5-b]pyridin-2-yl)methyl)-2-(4-(pyrazin-2-yl)piperazin-1-yl)pyrimidin-4-amine] | > 1000 | 23 nM | 2 | 432 |  |  |  | 
Clc1cc(Cl)cc(CNCCNc2nc3ccc(Cl)nc3[nH]2)c1 [Compound 1849, [2-({5-chloro-3H-imidazo[4,5-b]pyridin-2-yl}amino)ethyl][(3,5-dichlorophenyl)methyl]amine] |  | 33 nM | 3110 | 1810 | 60.7 |  |  | 
O=c1[nH]c(Cc2ccc(Cl)cc2Cl)cn1Cc1nc2ccccc2[nH]1 [Compound 1907, 3-((1H-benzo[d]imidazol-2-yl)methyl)-5-(2,4-dichlorobenzyl)-1H-imidazol-2(3H)-one] | > 1000 | 19 nM | 54 | 7670 | 346 |  |  | 
Fc1ccc2[nH]c(N3CCC[C@H](NCc4cc(Cl)cc(Cl)c4)C3)nc2n1 [Compound 1900, (S)—N-(3,5-dichlorobenzyl)-1-(5-fluoro-1H-imidazo[4,5-b]pyridin-2-yl)piperidin-3-amine] |  | 27 nM | 303 | 2240 | 128 |  |  | > 200 nM
CN(CCNCc1cc(Cl)cc(Cl)c1)c1nc2nc(F)ccc2[nH]1 [Compound 1913, N-(2-{[(3,5-dichlorophenyl)methyl]amino}ethyl)-5-fluoro-N-methyl-1H-imidazo[4,5-b]pyridin-2-amine] | > 1000 | 26 nM | 691 |  | 113 |  |  | 
CN(CCN[C@@H]1CCNc2c(Cl)cc(Cl)cc21)c1nc2nc(Cl)ccc2[nH]1 [Compound 1917, 5-chloro-N-(2-{[(4R)-6,8-dichloro-1,2,3,4-tetrahydroquinolin-4-yl]amino}ethyl)-N-methyl-3H-imidazo[4,5-b]pyridin-2-amine] | 663 | 21 nM | 137 | 15.7 |  |  |  | 
Clc1ccc2[nH]c([C@H]3CCCN(Cc4ccc(Cl)c(Cl)c4)C3)nc2n1 [Compound 1870, (S)-5-chloro-2-(1-(3,4-dichlorobenzyl)piperidin-3-yl)-1H-imidazo[4,5-b]pyridine] |  | 54 nM | 837 | 2610 | 458 |  |  | 
O=C(NCc1nc2ccc(F)nc2[nH]1)OCCc1ccc(Cl)cc1Cl [Compound 1707, 2-(2,4-dichlorophenyl)ethyl N-({5-fluoro-3H-imidazo[4,5-b]pyridin-2-yl}methyl)carbamate] | > 1000 | 26 nM | 37 | > 10000 | 1610 |  |  | 
O=C(Cc1cc(Cl)cc(Cl)c1)N1CCCC(c2nc3nc(Cl)ccc3[nH]2)C1 (centres unmarked) [Compound 1762, 1-(3-(5-chloro-1H-imidazo[4,5-b]pyridin-2-yl)piperidin-1-yl)-2-(3,5-dichlorophenyl)ethanone] |  | 28 nM | 2880 |  | 1060 | > 10 | > 10 | 
